# From patent publication US11254640B2, “N-substituted indoles and other heterocycles for treating brain disorders” (The Regents of the University of California, priority 2019, dated 2022)
# Target: T1, 5HT2A (Homo sapiens, UniProt P28223)
# T1 construct: expressed in transfected cells
# Test: Calcium flux assay (Calcium secondary messenger pathway)
# Type: cell-based
# Details: agonist mode
# Method in brief: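 Gq-coupled calcium mobilization in cells stably expressing 5HT2A, loaded 30–60 min at 37 °C with calcium-sensitive dye in HBSS/20 mM Hepes with 2.5 mM probenecid. Compound added 5 s into a 2-min FLIPR Tetra fluorescence read at room temperature; % activity relative to vehicle and maximal control-ligand RFU.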
# T1 sequence (P28223 whole entry): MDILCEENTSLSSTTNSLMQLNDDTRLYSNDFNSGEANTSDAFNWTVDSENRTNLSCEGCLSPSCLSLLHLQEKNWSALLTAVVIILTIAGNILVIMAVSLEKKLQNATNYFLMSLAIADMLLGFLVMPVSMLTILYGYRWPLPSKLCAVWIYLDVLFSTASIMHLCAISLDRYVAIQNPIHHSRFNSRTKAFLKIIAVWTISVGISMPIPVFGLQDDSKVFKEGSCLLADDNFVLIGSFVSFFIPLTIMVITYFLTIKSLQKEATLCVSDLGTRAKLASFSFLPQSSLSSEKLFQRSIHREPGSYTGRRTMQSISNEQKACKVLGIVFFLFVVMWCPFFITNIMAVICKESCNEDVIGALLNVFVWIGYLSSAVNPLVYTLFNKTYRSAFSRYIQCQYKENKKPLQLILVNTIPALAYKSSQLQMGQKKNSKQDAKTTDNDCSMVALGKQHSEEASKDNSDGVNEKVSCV
row,SMILES,EC50 [µM]
1,"COc1cccc2c1ccn2CCN(C)C.O=C(O)/C=C/C(=O)O [Example 3, 2-(4-methoxy-1H-indol-1-yl)-N,N-dimethylethan-1-amine]",> 10
2,"COc1ccc2c(ccn2CCN(C)C)c1.O=C(O)/C=C/C(=O)O [Example 4, 2-(5-methoxy-1H-indol-1-yl)-N,N-dimethylethan-1-amine]",> 10
3,"COc1ccc2ccn(CCN(C)C)c2c1 [Example 5, 2-(6-methoxy-1H-indol-1-yl)-N,N-dimethylethan-1-amine]",< 10
4,"COc1cccc2ccn(CCN(C)C)c12.O=C(O)/C=C/C(=O)O [Example 6, 2-(7-methoxy-1H-indol-1-yl)-N,N-dimethylethan-1-amine]",< 10
5,"COc1ccc2c(ccn2C[C@@H](C)N(C)C)c1 [Example 59, (R)-1-(5-methoxy-1H-indol-1-yl)-N,N-dimethylpropan-2-amine]",> 10
6,"C[C@H](Cn1ccc2cc(F)ccc21)N(C)C [Example 60, (R)-1-(5-fluoro-1H-indol-1-yl)-N,N-dimethylpropan-2-amine]",> 10

# Test system: 5HT2A sensor
# Test: 5HT2A sensor assay, antagonist mode (sLight1.3s HEK293T stable line)
# Type: cell-based
# Details: 100 nM compound; relative to 5-HT at 100 nM
# Method in brief: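 Inactivation score is computed from membrane dFF as (dFF(compound+5HT)−dFF(5HT))/dFF(5HT), with HBSS-only fluorescence as Fapo. Final concentrations: 5-HT 100 nM added first, then compound at 100 nM, 10 μM or 100 μM in 0.1% DMSO. Triplicates; FITC imaging, 5 fields per well.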
row,SMILES,5HT2A Antagonist mean @ 100 nM (%)
1,"COc1cccc2c1ccn2CCN(C)C.O=C(O)/C=C/C(=O)O [Example 3, 2-(4-methoxy-1H-indol-1-yl)-N,N-dimethylethan-1-amine]",A (inhibits 5HT response by >100%)
2,"COc1ccc2c(ccn2CCN(C)C)c1.O=C(O)/C=C/C(=O)O [Example 4, 2-(5-methoxy-1H-indol-1-yl)-N,N-dimethylethan-1-amine]",C (inhibits 5HT response by <75%)
3,"COc1ccc2ccn(CCN(C)C)c2c1 [Example 5, 2-(6-methoxy-1H-indol-1-yl)-N,N-dimethylethan-1-amine]",B (inhibits 5HT response by 75% to 100%)
4,"COc1cccc2ccn(CCN(C)C)c12.O=C(O)/C=C/C(=O)O [Example 6, 2-(7-methoxy-1H-indol-1-yl)-N,N-dimethylethan-1-amine]",A (inhibits 5HT response by >100%)
5,"COc1ccc2c(ccn2C[C@@H](C)N(C)C)c1 [Example 59, (R)-1-(5-methoxy-1H-indol-1-yl)-N,N-dimethylpropan-2-amine]",B (inhibits 5HT response by 75% to 100%)
6,"C[C@H](Cn1ccc2cc(F)ccc21)N(C)C [Example 60, (R)-1-(5-fluoro-1H-indol-1-yl)-N,N-dimethylpropan-2-amine]",C (inhibits 5HT response by <75%)

# Same assay, conditions: 10 μM compound; relative to 5-HT at 100 nM
row,SMILES,5HT2A Antagonist mean @ 10 μM (%)
1,"COc1cccc2c1ccn2CCN(C)C.O=C(O)/C=C/C(=O)O [Example 3, 2-(4-methoxy-1H-indol-1-yl)-N,N-dimethylethan-1-amine]",A (inhibits 5HT response by >100%)
2,"COc1ccc2c(ccn2CCN(C)C)c1.O=C(O)/C=C/C(=O)O [Example 4, 2-(5-methoxy-1H-indol-1-yl)-N,N-dimethylethan-1-amine]",B (inhibits 5HT response by 75% to 100%)
3,"COc1ccc2ccn(CCN(C)C)c2c1 [Example 5, 2-(6-methoxy-1H-indol-1-yl)-N,N-dimethylethan-1-amine]",B (inhibits 5HT response by 75% to 100%)
4,"COc1cccc2ccn(CCN(C)C)c12.O=C(O)/C=C/C(=O)O [Example 6, 2-(7-methoxy-1H-indol-1-yl)-N,N-dimethylethan-1-amine]",A (inhibits 5HT response by >100%)
5,"COc1ccc2c(ccn2C[C@@H](C)N(C)C)c1 [Example 59, (R)-1-(5-methoxy-1H-indol-1-yl)-N,N-dimethylpropan-2-amine]",A (inhibits 5HT response by >100%)
6,"C[C@H](Cn1ccc2cc(F)ccc21)N(C)C [Example 60, (R)-1-(5-fluoro-1H-indol-1-yl)-N,N-dimethylpropan-2-amine]",B (inhibits 5HT response by 75% to 100%)

# Same assay, conditions: 100 μM compound; relative to 5-HT at 100 nM
row,SMILES,5HT2A Antagonist mean @ 100 μM (%)
1,"COc1cccc2c1ccn2CCN(C)C.O=C(O)/C=C/C(=O)O [Example 3, 2-(4-methoxy-1H-indol-1-yl)-N,N-dimethylethan-1-amine]",A (inhibits 5HT response by >100%)
2,"COc1ccc2c(ccn2CCN(C)C)c1.O=C(O)/C=C/C(=O)O [Example 4, 2-(5-methoxy-1H-indol-1-yl)-N,N-dimethylethan-1-amine]",B (inhibits 5HT response by 75% to 100%)
3,"COc1ccc2ccn(CCN(C)C)c2c1 [Example 5, 2-(6-methoxy-1H-indol-1-yl)-N,N-dimethylethan-1-amine]",B (inhibits 5HT response by 75% to 100%)
4,"COc1cccc2ccn(CCN(C)C)c12.O=C(O)/C=C/C(=O)O [Example 6, 2-(7-methoxy-1H-indol-1-yl)-N,N-dimethylethan-1-amine]",A (inhibits 5HT response by >100%)
5,"COc1ccc2c(ccn2C[C@@H](C)N(C)C)c1 [Example 59, (R)-1-(5-methoxy-1H-indol-1-yl)-N,N-dimethylpropan-2-amine]",A (inhibits 5HT response by >100%)
6,"C[C@H](Cn1ccc2cc(F)ccc21)N(C)C [Example 60, (R)-1-(5-fluoro-1H-indol-1-yl)-N,N-dimethylpropan-2-amine]",B (inhibits 5HT response by 75% to 100%)

# Test system: rat cortical neurons
# Test: Neurite outgrowth assay
# Type: cell-based
# Details: Cortical neurone, 1 hour treatment at DIV 4, analysed DIV 7, fold vs DMSO control, read-out: Neurite Average Length @ 10 μM
# Method in brief: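 Embryonic day 18 rat cortical neurons, 20,000 cells/well in Neurobasal/B27, were exposed at DIV 4 to 10 μM compound for 1 hour, then washed out. At DIV 7, β-III-tubulin immunostaining and automated imaging gave neurite length, branch points, root and extremity counts, reported as fold-change versus DMSO; triplicates.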
row,SMILES,fold induction at 10 µM
1,"COc1cccc2c1ccn2CCN(C)C.O=C(O)/C=C/C(=O)O [Example 3, 2-(4-methoxy-1H-indol-1-yl)-N,N-dimethylethan-1-amine]",< 1.5
2,"COc1ccc2c(ccn2CCN(C)C)c1.O=C(O)/C=C/C(=O)O [Example 4, 2-(5-methoxy-1H-indol-1-yl)-N,N-dimethylethan-1-amine]",1.5 to 3
3,"COc1ccc2ccn(CCN(C)C)c2c1 [Example 5, 2-(6-methoxy-1H-indol-1-yl)-N,N-dimethylethan-1-amine]",1.5 to 3
4,"COc1cccc2ccn(CCN(C)C)c12.O=C(O)/C=C/C(=O)O [Example 6, 2-(7-methoxy-1H-indol-1-yl)-N,N-dimethylethan-1-amine]",1.5 to 3
5,"COc1ccc2c(ccn2C[C@@H](C)N(C)C)c1 [Example 59, (R)-1-(5-methoxy-1H-indol-1-yl)-N,N-dimethylpropan-2-amine]",1.5 to 3
6,"C[C@H](Cn1ccc2cc(F)ccc21)N(C)C [Example 60, (R)-1-(5-fluoro-1H-indol-1-yl)-N,N-dimethylpropan-2-amine]",1.5 to 3

# Same assay, conditions: Cortical neurone, 1 hour treatment at DIV 4, analysed DIV 7, fold vs DMSO control, read-out: Neurite Branch Points: @ 10 μM
row,SMILES,fold induction at 10 µM
1,"COc1cccc2c1ccn2CCN(C)C.O=C(O)/C=C/C(=O)O [Example 3, 2-(4-methoxy-1H-indol-1-yl)-N,N-dimethylethan-1-amine]",1.5 to 3
2,"COc1ccc2c(ccn2CCN(C)C)c1.O=C(O)/C=C/C(=O)O [Example 4, 2-(5-methoxy-1H-indol-1-yl)-N,N-dimethylethan-1-amine]",1.5 to 3
3,"COc1ccc2ccn(CCN(C)C)c2c1 [Example 5, 2-(6-methoxy-1H-indol-1-yl)-N,N-dimethylethan-1-amine]",1.5 to 3
4,"COc1cccc2ccn(CCN(C)C)c12.O=C(O)/C=C/C(=O)O [Example 6, 2-(7-methoxy-1H-indol-1-yl)-N,N-dimethylethan-1-amine]",1.5 to 3
5,"COc1ccc2c(ccn2C[C@@H](C)N(C)C)c1 [Example 59, (R)-1-(5-methoxy-1H-indol-1-yl)-N,N-dimethylpropan-2-amine]",> 3
6,"C[C@H](Cn1ccc2cc(F)ccc21)N(C)C [Example 60, (R)-1-(5-fluoro-1H-indol-1-yl)-N,N-dimethylpropan-2-amine]",1.5 to 3
